From patent publication US8883763B2 (Universite Joseph Fourier, priority 2010, dated 2014)

Assays:
PP1 and PP2A = conditions: cited from earlier work
[1] = trials discontinued; cited from earlier work
HMEC cells = experiment: Proliferation of HMEC cells (GI50); type: cell-based; conditions: Homo sapiens, 120 h, 50 μM to 1 nM for 5 days
How it was run: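 Cells seeded at 1,000/well (10% confluence) and exposed 5 days (120 h) to compound from 1 nM up to 50–100 μM. Live cells counted by Hoechst 33342 staining under fluorescence microscopy; GI50 is concentration halving proliferation versus control, mean of two triplicate experiments.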

bovine brain tubulin = experiment: In vitro tubulin polymerization test (turbidimetry at 350 nm); type: biochemical; conditions: molecules at 50 μM, calculated at t=3000 s, DMSO control = 100%
How it was run: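 Bovine brain tubulin was assembled at 37 °C in BRB80 (80 mM K-PIPES pH 6.8, 1 mM MgCl2, 1 mM EGTA) with 1 mM GTP. The 50 μM tests used compounds at 50 μM, run in triplicate. Turbidity at 350 nm was read at t=3000 s and expressed relative to control taken as 100%.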

PP1α (PP1CA) = molecular target: T1, PP1α (PP1CA) (Oryctolagus cuniculus, UniProt P62139); experiment: Protein phosphatase test (PP1 activity, DiFMUP fluorescent substrate); type: biochemical; conditions: PP1CA at 80 mU, fluorescent substrate (50 μM), molecules from 50 μM to 50 nM; read-out: PP1 Inhibition IC50
T1 construct: purchased New England Biolabs P0754
T1 sequence (P62139 whole entry): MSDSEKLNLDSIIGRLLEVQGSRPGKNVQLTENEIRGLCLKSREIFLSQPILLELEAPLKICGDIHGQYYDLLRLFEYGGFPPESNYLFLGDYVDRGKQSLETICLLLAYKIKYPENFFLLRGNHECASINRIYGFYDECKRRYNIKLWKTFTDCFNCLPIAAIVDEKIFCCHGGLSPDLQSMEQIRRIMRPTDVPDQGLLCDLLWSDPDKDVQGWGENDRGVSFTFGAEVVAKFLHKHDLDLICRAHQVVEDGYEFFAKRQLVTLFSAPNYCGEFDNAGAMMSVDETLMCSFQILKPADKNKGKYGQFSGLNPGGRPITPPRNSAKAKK
How it was run: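 PP1α (30 or 80 mU) in 100 mM Tris-HCl pH 7.5, 4 mM DTT, 0.2 mM EDTA, 0.5 mM MnCl2 was preincubated 15 min with compound (50 μM to 50 nM), then given 60 μM DiFMUP for 20 min at 37 °C. Phosphatase activity was read as fluorescence at 355-460 nm, three times in duplicate.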

HeLa cells [2] = experiment: Indirect immunofluorescence: effect on HeLa cells (mitotic arrest, microtubule depolymerization); type: cell-based, human; design: key to Effect on Hela at 25 μM / Effect on Hela at 100 μM / Effect on Hela at 50 and 100 μM / Effect on Hela at 50 μM: —: −: no activity on the cells at 25 μM (if there is an effect at high concentrations, this is specified in the table).; *: weak activity (MA and/or slight depolymerization of the MTs and/or slight inhibition of proliferation),; **: average activity (MA and/or moderate depolymerization of the MTs and/or moderate inhibition of proliferation),; ***: strong activity (MA and/or pronounced depolymerization of the MTs and/or pronounced inhibition of proliferation),; ****: very strong activity (MA and/or very pronounced depolymerization of the MTs and/or strong inhibition of proliferation); conditions: 24 hours; for Effect on Hela at 25 μM: mitotic index and/or depolymerization of the MTs
How it was run: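 HeLa cells exposed 24 h to compound (100 μM to 50 nM; primary series 1–10 μM), DMSO controls. PFA/glutaraldehyde-fixed cells immunostained for α-tubulin, actin (phalloidin) and DNA (Hoechst); fluorescence microscopy scored phenotypes and mitotic index, with mitotic index and/or MT depolymerization evaluated at 25 μM.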

PP1C = experiment: Affinity chromatography on immobilized compound and immunoblotting; type: binding, Xenopus laevis; conditions: Xenopus egg extracts; immunoblot anti-PP1C and anti-PP2A; PP2A only traces as in control
Procedure: Xenopus egg cytoplasmic extracts were prepared from unfertilized Xenopus laevis eggs according to the method described (Desai A et al., Methods Cell Biol. 1999; 61: pp 385-412).
The molecule 37 was immobilized on a sepharose resin activated by an N-hydroxysuccinimide (NHS) group (GE Healthcare #17-0906-01) as follows: 100 μg of the molecule 37 per ml of NHS Sepharose in PBS, pH 8.3, for 1 hour at ambient temperature. The sepharose coupled with molecule 37 was designated “compound 6” resin, whereas in parallel, another “control” resin was produced with incubation in 0.5 M Monoethanolamine (MEA), pH 8.3, under the same conditions, in order to neutralize the NHS functions. After several washings with PBS, pH 8.3, the NHS functions remaining free were blocked with 0.5 M MEA for 30 minutes. Once they had been thoroughly washed with PBS, the “control” and “compound 6” resins were incubated with 1 ml of Xenopus egg extracts diluted 1:1 in CSF-XB buffer containing protease inhibitors (#1 873 580 Roche®), for 1 hour under stirring at 4° C. After 2 washings with PBST, the proteins of the extract remaining attached were eluted with 100 μl of electrophoresis SDS charge buffer (Laemmli, U.K., Cleavage of structural proteins during the assembly of the head of bacteriophage T4. Nature 1970; 227, 680-685) enriched with 6M urea. […]

HeLa cells [3] = experiment: Comparative tests with INH2BP: antiproliferative activity; type: cell-based, human; conditions: 50 μM
Procedure: The cells were seeded in 96-well plates (1,000 per well) and incubated with different concentrations of compound 6 (1 nM to 100 μM), for 5 days (120 hours). At the end of this incubation, Hoechst 33342 (1 μg/ml) was added to the culture medium and the live cells were counted under a fluorescence microscope (Zeiss Axiovert 200M). The data represents the average of two independent experiments during which 10 fields chosen at random were analyzed for each concentration of compound 6, themselves produced in triplicate.

[4] = due to its structural instability; cited from earlier work

Row | Compound | selectivity for PP1 relative to PP2A (PP1 and PP2A) | GI50 (HMEC cells) | Tubulin polymerization inhibition (bovine brain tubulin) | IC50 (PP1α (PP1CA)) | Effect on Hela at 25 μM (HeLa cells [2]) | melting point | further results
1 | tautomycetin | 40 times |  |  |  |  |  | 
2 | C[C@@]12C(=O)OC(=O)[C@]1(C)[C@H]1CC[C@@H]2O1 [cantharidin] |  |  |  |  |  |  | toxicity in clinical trials [1]: too-high nephrotoxicity
3 | COc1ccc2c([N+](=O)[O-])c(-c3ccc(OCCOCCOCCOCCN)cc3)[nH]c(=O)c2c1 [Compound 37, 3-(4-(2-(2-(2-(2-Aminoethoxy)ethoxy)ethoxy)ethoxy)phenyl)-7-methoxy-4-nitroisoquinolin-1(2H)-one] |  | 25 to 50 µM | — ((−) signifies that the molecule induces little or no tubulin assembly inhibition in vitro: 0+ or − −5% of the DMSO control.) | > 50 µM | — |  | retention of PP1C by compound immobilized on sepharose resin (PP1C): specifically retains PP1C
4 | CO[C@H]([C@H](O)CC(=O)[C@@H](C)[C@@H](O)CC[C@@H](C)[C@@H]1O[C@]2(CC[C@@H](C)[C@H](CC[C@H](C)C(C)=O)O2)CC[C@@H]1C)[C@H](OC(=O)C[C@@H](O)C1=C(C)C(=O)OC1=O)C(C)C [tautomycin] | 4 times |  |  |  |  |  | 
5 | Nc1ccc2oc(=O)ccc2c1I [INH2BP, 5-iodo-6-amino-1,2-benzopyrone] |  |  |  |  |  |  | antiproliferative activity on HeLa cells (HeLa cells [3]): no antiproliferative activity
6 | C[C@@](O)(/C=C/[C@H]1CC=CC(=O)O1)[C@@H](C[C@@H](O)\C=C/C=C\C=C\CO)OP(=O)(O)O [fostriecin] |  |  |  |  |  |  | selectivity for PP2A (PP1 and PP2A; PP2A relative to PP1): 40,000 times; activity in phase I clinical trial [4]: inactive
7 | Phosphatidic acid | 100 times |  |  |  |  |  | 
8 | COc1ccc(-c2c([N+](=O)[O-])c3ccc(OC)cc3c(=O)n2CC#N)cc1 [Compound 30, 2-(7-Methoxy-3-(4-methoxyphenyl)-4-nitro-1-oxoisoquinolin-2(1H)-yl)ethanenitrile] |  | > 50 µM | + ((+) signifies that the molecule induces tubulin assembly inhibition in vitro comprised between 6 and 25% of the DMSO control.) | ≥ 50 µM | — | 194 to 196 °C | 
9 | C#CCn1c(-c2ccc(OC)cc2)c([N+](=O)[O-])c2ccc(OC)cc2c1=O [Compound 28, 7-Methoxy-3-(4-methoxyphenyl)-4-nitro-2-(propargyl)isoquinolin-1(2H)-one] |  | > 50 µM | — ((−) signifies that the molecule induces little or no tubulin assembly inhibition in vitro: 0+ or − −5% of the DMSO control.) | 25 to 50 µM | — | 162 to 164 °C | Effect on Hela at 50 and 100 μM (HeLa cells [2]; 50 and 100 μM): **
10 | COc1ccc(-c2[nH]c(=O)c3cc(OC)ccc3c2N(C)C)cc1 [Compound 23, 4-(Dimethylamino)-7-methoxy-3-(4-methoxyphenyl)isoquinoline-1(2H)-one] |  | 1 to 25 µM | + ((+) signifies that the molecule induces tubulin assembly inhibition in vitro comprised between 6 and 25% of the DMSO control.) | > 50 µM | *** | 183 to 185 °C | 
